{"source": "patent US11013684B2", "about": "“Body fluid expanders comprising N-substituted aminosulfonic acid buffers” (AQIX, Ltd., priority 2007, dated 2021)", "origin": "cited, not measured here", "key": {"[1]": {"details": "for −ΔpKa/° C.: aqueous solution, 20° C."}, "[2]": {"tested_on": "cultured mammalian cells", "details": "long term studies"}}}
{"smiles": "O=C(O)CN(CCO)CCO", "note": "[BICINE, N,N-bis (2-hydroxyethyl) glycine]", "values": [{"measurement": "−ΔpKa/° C.", "setting": "[1]", "value": 0.018}]}
{"smiles": "O=C(O)CNC(CO)(CO)CO", "note": "[TRICINE, N-tris(hydroxymethyl) methylglycine]", "values": [{"measurement": "−ΔpKa/° C.", "setting": "[1]", "value": 0.021}]}
{"smiles": "O=S(=O)(O)CCN1CCN(CCS(=O)(=O)O)CC1", "note": "[PIPES, piperazine-N,N′-bis(2-ethanesulfonic acid)]", "values": [{"measurement": "pKa @ 20° C.", "setting": "[1]; aqueous solution at 20° C.", "value": 6.80}, {"measurement": "−ΔpKa/° C.", "setting": "[1]", "value": 0.009}]}
{"smiles": "O=S(=O)(O)CCN(CCO)CCO", "note": "[BES, N,N-bis (2-hydroxyethyl)-2-aminoethanesulfonic acid]", "values": [{"measurement": "−ΔpKa/° C.", "setting": "[1]", "value": 0.016}, {"measurement": "toxicity to cultured mammalian cells", "setting": "[2]", "value": "non-toxic"}]}
